Data on 23 compounds can be found in the supplement of paper PMC5412046.

The subject of test [1] is SB.mhdgc-1. The test can be described thus: area under the dose-response curve of % viability (trapezoidal, 11 doses) (% viability x log10 concentration); higher = less cytotoxic. As to conditions: SB.mhdgc-1 (hereditary c.1380delA CDH1 gastric cancer). In a few lines:
(§1)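 A pintool delivered 23 nL of compound in DMSO to 1536-well plates holding 500 hereditary or sporadic patient-derived gastric cancer cells in 5 μL medium per well, at 11 concentrations in threefold steps. Following 48 h of exposure, cells were treated with CellTiter-Glo for 30 min at room temperature, and plates were read for luminescence on a ViewLux. The reported measure is viability normalised to DMSO, either at the top concentration or as trapezoidal area under the curve.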

For test [2], the system named is SB.msgc-1. The description is as above. As to conditions: SB.msgc-1 (sporadic gastric cancer). Summed up:
as §1

In test [3] the test system is SB.mhdgc-1. The test can be described thus: viability at highest tested concentration (MAXR) relative to DMSO; higher = less cytotoxic. Particulars: SB.mhdgc-1 (hereditary c.1380delA CDH1 gastric cancer). Summed up: as §1
In test [4] the test system is SB.msgc-1. The description is as above. Particulars: SB.msgc-1 (sporadic gastric cancer). Summed up:
as §1

Molecules are shown by their SMILES.

As for `CCOC(=O)c1ccc(OC(=O)CCCCCNC(=N)N)cc1` [Gabexate mesilate] (top concentration 46.0829 µM), the “area under the dose-response curve” value in test [1] worked out at 485; in test [2], 547. Also, the viability (usually a read-out of living cells in per cent, often relative to untreated cells) in test [3] came to 116%; in test [4], 120%.

For `COc1ccc2[nH]cc(CCNC(C)=O)c2c1` [Melatonin] (top concentration 46.0829 µM), the “area under the dose-response curve” value in test [1] stood at 481; in test [2], 409. In addition, the viability in test [3] amounted to 48.2%; in test [4], 34.7%.

Turning to `O=C(NC1CC1)c1cccc(-c2ccc3c(NC(=O)C4CC4)n[nH]c3c2)c1` (top concentration 46.0829 µM), the “area under the dose-response curve” value is 289 in test [1] and 398 in test [2]. Further, the viability in test [3] is 22.1%; in test [4], 34.6%.

`CC(C)CC(=O)N[C@H](C(=O)N[C@H](C(=O)N[C@@H](CC(C)C)[C@@H](O)CC(=O)N[C@@H](C)C(=O)N[C@@H](CC(C)C)[C@@H](O)CC(=O)O)C(C)C)C(C)C` [Pepstatin] (top concentration 46.0829 µM): the “area under the dose-response curve” value was 488 in test [1] and 511 in test [2]. Moreover, the viability turned out to be 82.2% in test [3] and 92.9% in test [4].

For `N#Cc1c(N(CC(=O)[O-])CC(=O)[O-])sc(C(=O)[O-])c1CC(=O)[O-].O.O.O.O.O.O.O.[Sr+2].[Sr+2]` [Ranelic acid distrontium salt] (top concentration 46.0829 µM), the “area under the dose-response curve” value turned out to be 565 in test [1] and 504 in test [2]. Moreover, the values for the viability in test [3] and in test [4] were 92.2% and 94.8%, respectively.

As for `Oc1cccc(-c2nc(N3CCOCC3)c3oc4ncccc4c3n2)c1` [PI-103] (top concentration 92.1659 µM), the figures for the “area under the dose-response curve” value in test [1] and in test [2] were 308 and 457, respectively. For the same compound, the figures for the viability in test [3] and in test [4] were 6.8% and 37.9%, respectively.

For `COC1=CC=C2[C@H]3CC[C@]4(C)[C@H](CC[C@H]4[C@@H]3CCC2=C1)NCCCCCCN5C(=O)\C=C/C5=O` (top concentration 46.0829 µM), the “area under the dose-response curve” value worked out at 526 in test [1] and 579 in test [2]. Also, the viability in test [3] is 83.9%; in test [4], 91%.

On to `O=C([O-])[C@H](CC(=O)N1C[C@H]2CCCC[C@H]2C1)Cc1ccccc1` [Mitiglinide calcium hydrate] (top concentration 46.0829 µM), for which the “area under the dose-response curve” value in test [1] came out at 547; in test [2], 549. Further, the viability was 114% in test [3] and 109% in test [4].

Turning to `COc1ccc(C(=O)c2c(C)n(CCN3CCOCC3)c3ccccc23)cc1` [Pravadoline] (top concentration 46.0829 µM), the “area under the dose-response curve” value in test [1] turned out to be 563; in test [2], 463. In addition, the viability turned out to be 114% in test [3] and 94.5% in test [4].

Take `COC1=CC=C2/C3=N/CCN3\C(=N/C2=C1OC)NC(=O)C4=CC=CN=C4` [PIK-90] (top concentration 46.0829 µM): the entries for the “area under the dose-response curve” value in test [1] and in test [2] were 415 and 474, respectively. The viability in test [3] worked out at 27.3%; in test [4], 40.5%.

Regarding `CC(C)C1=C(O)C=C(O)C(=C1)C/2=N/NC(=O)N2C3=CC4=C(C=C3)[N](C)C=C4` [Ganetespib] (top concentration 46.0829 µM), the “area under the dose-response curve” value in test [1] is 336; in test [2] it was 357. Moreover, the viability was found to be 52.9% in test [3] and 49.2% in test [4].

With `COc1cc2c(NC3CCN(C(C)C)CC3)nc(C3CCCCC3)nc2cc1OCCCN1CCCC1` [UNC-0638] (top concentration 46.0829 µM), the “area under the dose-response curve” value was found to be 368 in test [1] and 435 in test [2]. In addition, the viability in test [3] is 4.01%; in test [4] it was 12.3%.

Turning to `Cn1cnc(N)c2ncnc1-2` [3-Methyladenine] (top concentration 46.0829 µM), the figures for the “area under the dose-response curve” value in test [1] and in test [2] were 455 and 402, respectively. Besides, the viability was 81.8% in test [3] and 7.12% in test [4].

Turning to `COc1ccc(-c2c(-c3ccc(O)cc3O)n[nH]c2C)cc1` [PDHK RIKEN] (top concentration 92.1659 µM), the “area under the dose-response curve” value is 560 in test [1] and 518 in test [2]. The viability in test [3] was determined as 88.1%; in test [4], 66.6%.

Consider `C#C[C@]1(O)CC[C@H]2[C@@H]3CCc4cc(OC)ccc4[C@H]3CC[C@@]21C` [Mestranol] (top concentration 46.0829 µM), for which the “area under the dose-response curve” value in test [1] was determined as 607; in test [2], 486. The viability in test [3] turned out to be 65.3%; in test [4] it was 32.4%.

Consider `CC(O)(C#Cc1ccc2c(c1)N(c1nc(N)ncc1Cl)CC2)c1nccs1` (configuration not stated) (top concentration 46.0829 µM), for which the “area under the dose-response curve” value in test [1] came to 453; in test [2], 486. For the same compound, the viability in test [3] was 41.6%; in test [4], 56.3%.

For the compound `CC(C)C[C@H](NC(=O)CNC(=O)c1cc(Cl)ccc1Cl)B(O)O` [Ixazomib] (top concentration 46.0829 µM), the entries for the “area under the dose-response curve” value in test [1] and in test [2] were 306 and 234, respectively. The viability worked out at 2.83% in test [3] and 1.83% in test [4].

In the case of `O=C(O)c1ccc2c(c1)nc(Nc1cccc(Cl)c1)c1ccncc12` [Silmitasertib] (top concentration 46.0829 µM), the “area under the dose-response curve” value in test [1] is 565; in test [2], 491. Besides, the values for the viability in test [3] and in test [4] were 32.9% and 28.5%, respectively.

`C[C@]12C[C@H](O)[C@H]3[C@@H](CC\C4=C\C(=O)\C=C/[C@]34C)[C@@H]1CC[C@]2(O)C(=O)CO` [Prednisolone] (top concentration 46.0829 µM): the entries for the “area under the dose-response curve” value in test [1] and in test [2] were 558 and 571, respectively. In addition, the viability in test [3] worked out at 70.8%; in test [4] it was 79.8%.

On to `N#Cc1c(NC(=O)c2cccc3ccccc23)sc2c1CCCC2` [TCS JNK 5a] (top concentration 46.0829 µM), for which the results for the “area under the dose-response curve” value in test [1] and in test [2] were 476 and 404, respectively. For the same compound, the viability in test [3] came to 62.6%; in test [4], 37.7%.

As to `CN1[C@@H]2CC(O)C[C@H]1[C@@H]1O[C@@H]12` (some centres not stated) [Scopine] (top concentration 46.0829 µM), the figures for the “area under the dose-response curve” value in test [1] and in test [2] were 557 and 494, respectively. Further, the results for the viability in test [3] and in test [4] were 3.68% and 1.37%, respectively.

As for `CC1Cc2ccccc2N1NC(=O)c1ccc(Cl)c([S+](N)(=O)[O-])c1` (configuration not stated) [Indapamide] (top concentration 46.0829 µM), the “area under the dose-response curve” value is 597 in test [1] and 542 in test [2]. Further, the viability was determined as 112% in test [3] and 96.4% in test [4].

Regarding `N#C/C(=C\c1ccc(O)c(O)c1)C(=O)NCc1ccccc1` [Tyrphostin B42] (top concentration 46.0829 µM), the “area under the dose-response curve” value was found to be 584 in test [1] and 531 in test [2]. Besides, the viability stood at 62.8% in test [3] and 75% in test [4].
